Experiment [1] concerns confluent monolayer of HUVECs. Briefly: PM-ECIS resistance (4 kHz) response to EGTA and thrombin barrier disruption, 250/500/750 μm electrodes. Type of experiment: cell-based, human. Particulars: all electrode sizes. An excerpt:
The PM-ECIS devices were connected to a 24-channel multiplexer, which in turn connected to a phase-sensitive lock-in amplifier (LIA) and computer (FIG. 9D), The overall circuit for the ECIS system follows the set up described by Giaever and Keese. The LIA acts to both generate an alternating current signal, and receive signal measured across the cell layer. An alternating current signal of 1 V rms was generated at a specified frequency, connected to a 1 MΩ resistor to provide a 1 μA current. Cell-free devices were filled with culture medium and measurements taken over at least 12 hours to establish baseline impedance. The voltage drop across the device containing cells grown on electrodes was detected and measured by the LIA, which allows for small AC signals to be resolved in high noise systems. A cell-free baseline was established beforehand using cell-free devices filled with culture medium and impedance measurements taken over the course of at least 12 hours prior to cell seeding. LIA outputs including voltage drop and phase angle were used to calculate and plot impedance and resistance values.
Cells were incubated in 5 mM EGTA (Sigma-Aldrich, E3889) diluted in Endothelial Growth Medium at 37° C. and 5% CO2 for 2 hours, with ECIS measurements taken every 15 min. After 2 hours, EGTA was removed and replaced with fresh growth medium. For transient disruption of the endothelial barrier, cells were stimulated with 1 U/mL of thrombin from bovine plasma (Sigma-Aldrich, T6634) diluted in Endothelial Growth Medium at 37° C. and 5% CO2 for 2 hours, with measurements taken every 5 min.
To assess the effect of electrode size in PM-ECIS response to barrier disruption, a confluent monolayer of HUVECs was subjected to 2-hour treatment with EGTA. EGTA disrupts cell barriers by chelating Ca2+ ions to destabilize tight junctions. […]

For the next experiment, the system named is HUVEC monolayers. Briefly: PM-ECIS resistance of HUVEC monolayers on 6-well inserts after thrombin barrier disruption. Type of experiment: cell-based, human. Particulars: 1 U/mL thrombin in fresh media, HUVECs, 6-well PM-ECIS. Here is the method:
A lock-in amplifier (LIA) (SR850, Stanford Research Systems) was used to simultaneously generate AC current and read impedance data from the devices. An Arduino-operated multiplexer was used to switch between devices. Using a 1 V rms input voltage, in series with a 1 MΩ resistor, electrodes (typ. 500 μm dia.) were stimulated at frequencies of 400, 4000 and 40000 Hz, and any voltage drops (at the locked frequencies) across the electrodes were sampled with the LIA every 15 or 60 mins. Prior to use, the devices without cells were left in media for at least 12 hours to record a stable cell-free impedance baseline for each electrode at each frequency.
Cell barrier resistance (Rb), capacitance (Cm), and basal barrier beneath the cells (a) were modeled and calculated using ECIS Core software (Applied Biophysics, v1.2.215.0 PC) using the raw impedance values taken at 400, 4000, and 40000 Hz.

For the compound `O=C(O)CN(CCOCCOCCN(CC(=O)O)CC(=O)O)CC(=O)O` [EGTA, ethylene glycol-bis(β-aminoethyl ether)-N,N,N′,N′-tetraacetic acid], the “time to drop in resistance after treatment” value in experiment [1] (5 mM EGTA, 4 kHz) is ≤ 15 min.

Regarding “thrombin: thrombin from bovine plasma (Sigma), used to disrupt cell-cell junctions”, the “change in resistance after thrombin treatment” value in experiment [1] (1 U/mL thrombin, 4 kHz) is reported as “immediate drop in resistance”. Further, in experiment [1] (1 U/mL thrombin), the “time for resistances to return to or close to pre-treatment values” was ≤ 120 min. Moreover, the “change in 4 kHz PM-ECIS resistance after addition of thrombin” value with HUVEC monolayers is listed as “acute resistance drop”.
